Reference: PubChem BioAssay AID2060912 (Molecular Pharmacology Branch, DTP, NCI, 2025)

Tested on: HUVEC/MSC spheroids viability
Experiment: Human HUVEC/MSC cell line growth inhibition [KRAS2];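 for viability, T/C: percent of DMSO vehicle control luminescence so 100% = untreated viability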
Conditions: for IC50: curve of first compound; for viability, T/C: stronger effect = lower value
From the text: Multicellular complex tumor spheroid response to RAS pathway inhibitors in combination with a targeted agents in patient-derived cell lines with oncogenic KRAS variants from multiple cancer types
A high-throughput screen of multi-cell type tumor spheroids was designed to identify active combinations of targeted small molecules and KRAS pathway inhibitors. Complex spheroids include a stromal component modeled by human endothelial cells (HUVEC) and fibroblasts modeled by human mesenchymal stem cells (MSCs). The concentration ranges selected for each drug and investigational agent were based upon clinically achievable concentrations if the clinical Cmax of the agent was known. * [This particular assayID is a followup dataset requested by reviewers of the manuscript. It is a test of the HUVEC and MSC without the tumor cells, and was conducted using different drug plates and a different plate layout.]
Compounds. The drugs and investigational agents: BI-3406 (NSC825286), BAY-293 (NSC824723), batoprotafib (TNO155; NSC825523), sotorasib (AMG 510; NSC818433), MRTX1257 (NSC819558), elimusertib (BAY 1895344; NSC800525), molibresib (GSK525762; NSC774829), temuterkib (LY3214996; NSC803410), venetoclax (NSC766270), alisertib (NSC759677), olaparib (NSC753686), talazoparib (NSC767125), erdafitinib (NSC781556), ipatasertib (NSC767898), cabozantinib (NSC761068), nintedanib (NSC756659), abemaciclib (NSC768073), docetaxel (NSC628503), trametinib (NSC758246), and sapanisertib (NSC764658) were obtained from the National Cancer Institute (NCI) Developmental Therapeutics Program Chemical Repository. The FDA-approved anticancer drug set is available from the Developmental Therapeutics Program. […] The stock solutions were prepared in dimethyl sulfoxide (DMSO, Sigma-Aldrich, St. Louis, MO, cat. D2650) at 800-fold the tested concentration and stored at -70 degrees C prior to their use. All drugs and investigational agents were tested over a range starting from a high concentration at or near the clinical Cmax and decreasing in half-log increments. If the clinical Cmax for an agent had not been determined, the highest concentration tested was 10 microM.
Cell Culture. All cells were maintained in an incubator at 37 degrees C and 5% CO2 with 95% humidity. The PDC lines were cultured according to standard operating procedures established by the NCI PDMR (https://pdmr.cancer.gov/sops/default.htm). Briefly, all PDCs were thawed and cultured in Matrigel-coated flasks prepared with a working solution of 1X Ham's F-12 nutrient mix, without supplementation (Invitrogen, Waltham, MA, cat. 11765054), 100 U/mL penicillin-streptomycin (Invitrogen, cat. 15140122), and 2.5% Matrigel (Corning Inc., Corning, NY, cat. 354248) for the first three passages. All PDCs were cultured in complete DMEM/F-12 media containing advanced DMEM/F-12 (Invitrogen, cat. 12634028), 4.9% defined fetal bovine serum, heat inactivated (HyClone Laboratories Inc., Logan, UT, cat. SH30070.03HI), 389 ng/mL hydrocortisone (Sigma-Aldrich, cat. H4001), 9.7 ng/mL human EGF recombinant protein (Invitrogen, cat. PHG0313), 23.4 microg/mL adenine (Sigma-Aldrich, cat. A2786), 97.3 U/mL penicillin-streptomycin (Invitrogen, cat. 15140122), 1.9 mM L-glutamine (Invitrogen, cat. 25030081), and 9.7 microM Y-27632 dihydrochloride (Tocris Bioscience, Bristol, United Kingdom, cat. 1254). The PDCs were cultured in complete DMEM/F12 media without 9.7 microM Y-27632 dihydrochloride for at least two passages prior to the screen. The established cell line HOP-62 was cultured in RPMI 1640 medium, HEPES (Invitrogen, cat. 22400105) with 10% defined fetal bovine serum (HyClone Laboratories Inc., cat. SH30070.03) and 2 mM L-glutamine (Invitrogen, cat. 25030081). The pooled donor HUVEC were cultured in endothelial cell growth medium 2 (PromoCell, Heidelberg, Germany, cat. C-22011) and the hMSC were cultured in mesenchymal stem cell growth medium 2 (PromoCell, cat. C-28009). […]

[1] = second compound 0.0316 µM, first compound 0.0316 µM
[2] = second compound 0.0316 µM, first compound 0.1 µM
[3] = second compound 0.0316 µM, first compound 0.316 µM
[4] = second compound 0.0316 µM, first compound 1 µM
[5] = second compound 0.0316 µM, first compound 3.16 µM
[6] = second compound 0.0316 µM, first compound 10 µM
[7] = second compound 0.1 µM, first compound 0.0316 µM
[8] = second compound 0.1 µM, first compound 0.1 µM
[9] = second compound 0.1 µM, first compound 0.316 µM
[10] = second compound 0.1 µM, first compound 1 µM
[11] = second compound 0.1 µM, first compound 3.16 µM
[12] = second compound 0.1 µM, first compound 10 µM
[13] = second compound 0.316 µM, first compound 0.0316 µM
[14] = second compound 0.316 µM, first compound 0.1 µM
[15] = second compound 0.316 µM, first compound 0.316 µM
[16] = second compound 0.316 µM, first compound 1 µM
[17] = second compound 0.316 µM, first compound 3.16 µM
[18] = second compound 0.316 µM, first compound 10 µM
[19] = second compound 1 µM, first compound 0.0316 µM
[20] = second compound 1 µM, first compound 0.1 µM
[21] = second compound 1 µM, first compound 0.316 µM
[22] = second compound 1 µM, first compound 1 µM
[23] = second compound 1 µM, first compound 3.16 µM
[24] = second compound 1 µM, first compound 10 µM
[25] = second compound 3.16 µM, first compound 0.0316 µM
[26] = second compound 3.16 µM, first compound 0.1 µM
[27] = second compound 3.16 µM, first compound 0.316 µM
[28] = second compound 3.16 µM, first compound 1 µM
[29] = second compound 3.16 µM, first compound 3.16 µM
[30] = second compound 3.16 µM, first compound 10 µM
[31] = second compound 10 µM, first compound 0.0316 µM
[32] = second compound 10 µM, first compound 0.1 µM
[33] = second compound 10 µM, first compound 0.316 µM
[34] = second compound 10 µM, first compound 1 µM
[35] = second compound 10 µM, first compound 3.16 µM
[36] = second compound 10 µM, first compound 10 µM

Compound `CC(C)NCC(C(=O)N1CCN(c2ncnc3c2C(C)CC3O)CC1)c1ccc(Cl)cc1` (stereo unspecified) + C=CC(=O)N1CCN(c2nc(=O)n(-c3c(C)ccnc3C(C)C)c3nc(-c4c(O)cccc4F)c(F)cc23)C(C)C1 has an IC50 (second compound 0.0316 µM) of over 10 µM, an IC50 (second compound 0.1 µM) of over 10 µM and an IC50 (second compound 0.316 µM) of over 10 µM. It also gave an IC50 (second compound 1 µM) of over 10 µM, an IC50 (second compound 3.16 µM) of over 10 µM and an IC50 (second compound 10 µM) of over 10 µM. The viability, T/C [1] was 87.5%, the viability, T/C [2] was 93.7% and the viability, T/C [3] was 97.1%. It also gave a viability, T/C [4] of 77.7%, a viability, T/C [5] of 52.4% and a viability, T/C [6] of 53.6%. For the same compound, the viability, T/C [7] was 92.4%, the viability, T/C [8] was 104% and the viability, T/C [9] was 85.8%. For the same compound, the viability, T/C [10] was 76.1%, the viability, T/C [11] was 54.9% and the viability, T/C [12] was 64.9%. It also gave a viability, T/C [13] of 98.7%, a viability, T/C [14] of 102% and a viability, T/C [15] of 82.2%. It also gave a viability, T/C [16] of 65.8%, a viability, T/C [17] of 59.4% and a viability, T/C [18] of 63.1%. The viability, T/C [19] was 105%, the viability, T/C [20] was 99.4% and the viability, T/C [21] was 96.4%. For the same compound, the viability, T/C [22] was 71.3%, the viability, T/C [23] was 58% and the viability, T/C [24] was 68.1%. It also gave a viability, T/C [25] of 96.8%, a viability, T/C [26] of 124% and a viability, T/C [27] of 86.6%. The viability, T/C [28] was 84.6%, the viability, T/C [29] was 62.9% and the viability, T/C [30] was 68.9%. It also gave a viability, T/C [31] of 110%, a viability, T/C [32] of 119% and a viability, T/C [33] of 102%. The viability, T/C [34] was 64.5%, the viability, T/C [35] was 65% and the viability, T/C [36] was 47.2%.

With `CC1(C)CCC(CN2CCN(c3ccc(C(=O)NS(=O)(=O)c4ccc(NCC5CCOCC5)c([N+](=O)[O-])c4)c(Oc4cnc5[nH]ccc5c4)c3)CC2)=C(c2ccc(Cl)cc2)C1` + C=CC(=O)N1CCN(c2nc(=O)n(-c3c(C)ccnc3C(C)C)c3nc(-c4c(O)cccc4F)c(F)cc23)C(C)C1 the IC50 (second compound 0.0316 µM) was 4.57 µM, the IC50 (second compound 0.1 µM) was 4.7 µM and the IC50 (second compound 0.316 µM) was 5.75 µM. It also gave an IC50 (second compound 1 µM) of 5.28 µM, an IC50 (second compound 3.16 µM) of 5.97 µM and an IC50 (second compound 10 µM) of 5.96 µM. It also gave a viability, T/C [1] of 105%, a viability, T/C [2] of 92% and a viability, T/C [3] of 95.4%. The viability, T/C [4] was 85.4%, the viability, T/C [5] was 75.2% and the viability, T/C [6] was 2.28%. It also gave a viability, T/C [7] of 114%, a viability, T/C [8] of 101% and a viability, T/C [9] of 114%. It also gave a viability, T/C [10] of 85.7%, a viability, T/C [11] of 80.1% and a viability, T/C [12] of 3.17%. For the same compound, the viability, T/C [13] was 104%, the viability, T/C [14] was 100% and the viability, T/C [15] was 97.2%. It also gave a viability, T/C [16] of 115%, a viability, T/C [17] of 97.3% and a viability, T/C [18] of 6.37%. It also gave a viability, T/C [19] of 144%, a viability, T/C [20] of 125% and a viability, T/C [21] of 125%. The viability, T/C [22] was 115%, the viability, T/C [23] was 86.5% and the viability, T/C [24] was 6.99%. It also gave a viability, T/C [25] of 97%, a viability, T/C [26] of 123% and a viability, T/C [27] of 104%. The viability, T/C [28] was 113%, the viability, T/C [29] was 101% and the viability, T/C [30] was 8.7%. The viability, T/C [31] was 115%, the viability, T/C [32] was 143% and the viability, T/C [33] was 162%. It also gave a viability, T/C [34] of 119%, a viability, T/C [35] of 93.6% and a viability, T/C [36] of 15.4%.

`Cn1ncnc1[C@H]1c2n[nH]c(=O)c3cc(F)cc(c23)N[C@@H]1c1ccc(F)cc1` + C=CC(=O)N1CCN(c2nc(=O)n(-c3c(C)ccnc3C(C)C)c3nc(-c4c(O)cccc4F)c(F)cc23)C(C)C1 showed an IC50 (second compound 0.0316 µM) of over 0.1 µM, an IC50 (second compound 0.1 µM) of over 0.1 µM and an IC50 (second compound 0.316 µM) of over 0.1 µM. It also gave an IC50 (second compound 1 µM) of over 0.1 µM, an IC50 (second compound 3.16 µM) of over 0.1 µM and an IC50 (second compound 10 µM) of over 0.1 µM. For the same compound, the viability, T/C (second compound 0.0316 µM, first compound 0.000316 µM) was 101%, the viability, T/C (second compound 0.0316 µM, first compound 0.001 µM) was 100% and the viability, T/C (second compound 0.0316 µM, first compound 0.00316 µM) was 74.3%. The viability, T/C (second compound 0.0316 µM, first compound 0.01 µM) was 94.3%, the viability, T/C [1] was 83.1% and the viability, T/C [2] was 105%. It also gave a viability, T/C (second compound 0.1 µM, first compound 0.000316 µM) of 92.6%, a viability, T/C (second compound 0.1 µM, first compound 0.001 µM) of 117% and a viability, T/C (second compound 0.1 µM, first compound 0.00316 µM) of 101%. The viability, T/C (second compound 0.1 µM, first compound 0.01 µM) was 79.5%, the viability, T/C [7] was 96.2% and the viability, T/C [8] was 83.5%. For the same compound, the viability, T/C (second compound 0.316 µM, first compound 0.000316 µM) was 110%, the viability, T/C (second compound 0.316 µM, first compound 0.001 µM) was 110% and the viability, T/C (second compound 0.316 µM, first compound 0.00316 µM) was 97.2%. The viability, T/C (second compound 0.316 µM, first compound 0.01 µM) was 97.1%, the viability, T/C [13] was 99.2% and the viability, T/C [14] was 114%. It also gave a viability, T/C (second compound 1 µM, first compound 0.000316 µM) of 114%, a viability, T/C (second compound 1 µM, first compound 0.001 µM) of 106% and a viability, T/C (second compound 1 µM, first compound 0.00316 µM) of 95.4%. It also gave a viability, T/C (second compound 1 µM, first compound 0.01 µM) of 106%, a viability, T/C [19] of 106% and a viability, T/C [20] of 86%. It also gave a viability, T/C (second compound 3.16 µM, first compound 0.000316 µM) of 110%, a viability, T/C (second compound 3.16 µM, first compound 0.001 µM) of 141% and a viability, T/C (second compound 3.16 µM, first compound 0.00316 µM) of 101%. It also gave a viability, T/C (second compound 3.16 µM, first compound 0.01 µM) of 140%, a viability, T/C [25] of 130% and a viability, T/C [26] of 93.5%. For the same compound, the viability, T/C (second compound 10 µM, first compound 0.000316 µM) was 129%, the viability, T/C (second compound 10 µM, first compound 0.001 µM) was 127% and the viability, T/C (second compound 10 µM, first compound 0.00316 µM) was 112%. The viability, T/C (second compound 10 µM, first compound 0.01 µM) was 103%, the viability, T/C [31] was 105% and the viability, T/C [32] was 123%.
